Values after ≈ are worked out from the molar mass of the structure shown. Active and inactive are the calls of the source. The rule behind the calls is not given here.
Legend:
[1] = tested on: Enterococcus faecium; assay: Inhibitory activity against VanA strain of E. faecium; Range is 0.03-2 ug/mL; format: functional
[2] = tested on: Enterococcus faecalis; assay: Inhibitory activity against VanA strain of E. faecalis; Range is 0.03-2 ug/mL; format: functional
[3] = tested on: Streptococcus pneumoniae; assay: Inhibitory activity against Streptococcus pneumoniae; format: functional
[4] = tested on: Streptococcus pyogenes; assay: Inhibitory activity against Streptococcus pyogenes; format: functional
[5] = tested on: Staphylococcus aureus; assay: Inhibitory activity against MRSA; format: functional
[6] = Inhibitory activity against VanB enterococci; Range is 0.016-1 ug/mL; format: functional
[7] = tested on: Haemophilus influenzae; assay: Antibacterial activity against Haemophilus influenzae; Active; format: functional, organism-based
[8] = tested on: Chlamydia; assay: Antibacterial activity against Chlamydia; More active; format: functional, organism-based
[9] = Antibacterial activity against […] species.; More active; format: functional
[10] = Antibacterial activity against Legionella; More active; format: functional
[11] = tested on: Helicobacter pylori; assay: Antibacterial activity against Helicobacter pylori; Exhibits good activity; format: functional, organism-based
[12] = tested on: Pasteurella multocida; assay: Antibacterial activity against Pasteurella multocida; More active; format: functional, organism-based
[13] = tested on: Streptococcus sp.; assay: Antibacterial activity against Streptococci; Retention of potent activity; format: functional, organism-based
[14] = tested on: Streptococcus sp.; assay: Antibacterial activity against Streptococci; More active; format: functional, organism-based
[15] = tested on: Pseudomonas aeruginosa; assay: Antibacterial activity against Pseudomonas aeruginosa was determined; Active; format: functional, organism-based
[16] = tested on: Staphylococcus aureus; assay: Antibacterial activity against MRSA was determined; Active; format: functional, organism-based
[17] = Antibacterial activity against penicillin resistant pneumococci was determined; Active; format: functional

Compound	MIC [1]	MIC [2]	MIC [3]	MIC [4]	MIC [5]	MIC [6]	Activity [15]	other results
CN[C@H](CC(C)C)C(=O)N[C@H]1C(=O)N[C@@H](CC(N)=O)C(=O)N[C@H]2C(=O)N[C@H]3C(=O)N[C@](C)(C(=O)N[C@H](C(=O)O)c4cc(O)cc(O)c4-c4cc3ccc4O)[C@H](C[C@H]3C[C@](C)(N)[C@@H](O)[C@H](C)O3)c3ccc(c(Cl)c3)Oc3cc2cc(c3O[C@@H]2O[C@H](CO)[C@@H](O)[C@H](O)[C@H]2O[C@@H]2C[C@](C)(NCc3ccc(Oc4ccccc4)cc3)[C@@H](O)[C@H](C)O2)Oc2ccc(cc2Cl)[C@H]1O	0.03 µg/mL (≈ 0.0168 µM)	0.03 µg/mL (≈ 0.0168 µM)	< 0.008 µg/mL	< 0.06 µg/mL	≤ 0.5 µg/mL	0.016 µg/mL (≈ 0.00895 µM)		
CN[C@H](CC(C)C)C(=O)N[C@H]1C(=O)N[C@@H](CC(N)=O)C(=O)N[C@H]2C(=O)N[C@H]3C(=O)N[C@](C)(C(=O)N[C@H](C(=O)O)c4cc(O)cc(O)c4-c4cc3ccc4O)[C@H](C[C@H]3C[C@](C)(N)[C@@H](O)[C@H](C)O3)c3ccc(c(Cl)c3)Oc3cc2cc(c3O[C@@H]2O[C@H](CO)[C@@H](O)[C@H](O)[C@H]2O[C@@H]2C[C@](C)(NCc3ccc(-c4ccc(Cl)cc4)cc3)[C@@H](O)[C@H](C)O2)Oc2ccc(cc2Cl)[C@H]1O	0.03 µg/mL (≈ 0.0166 µM)	0.03 µg/mL (≈ 0.0166 µM)	< 0.008 µg/mL	< 0.06 µg/mL	≤ 0.5 µg/mL	0.016 µg/mL (≈ 0.00886 µM)		
CCCCC1CCC(CN[C@@]2(C)C[C@@H](O[C@H]3[C@H](Oc4c5cc6cc4Oc4ccc(cc4Cl)[C@@H](C[C@H]4C[C@](C)(N)[C@@H](O)[C@H](C)O4)[C@]4(C)NC(=O)[C@H](NC(=O)[C@@H]6NC(=O)[C@H](CC(N)=O)NC(=O)[C@H](NC(=O)[C@@H](CC(C)C)NC)[C@H](O)c6ccc(c(Cl)c6)O5)c5ccc(O)c(c5)-c5c(O)cc(O)cc5[C@@H](C(=O)O)NC4=O)O[C@H](CO)[C@@H](O)[C@@H]3O)O[C@@H](C)[C@@H]2O)CC1 (some centres not stated)	0.03 µg/mL (≈ 0.0171 µM)	0.03 µg/mL (≈ 0.0171 µM)	< 0.008 µg/mL	< 0.06 µg/mL	≤ 0.5 µg/mL	0.016 µg/mL (≈ 0.00911 µM)		
CN(C)[C@@H]1C(=O)C(C(N)=O)=C(O)[C@@]2(O)C(=O)C3=C(O)c4c(O)cccc4[C@H](CSCCCCl)C3[C@H](O)C12 (some centres not stated)								MIC90 [5]: 2 µg/mL (≈ 3.62 µM)
CC[C@H]1OC(=O)[C@H](C)[C@@H](OC2CC(C)(O)C(O)C(C)O2)[C@H](C)[C@@H](OC2OC(C)CC(N(C)C)C2O)[C@](C)(OC)C[C@@H](C)C(=O)[C@H](C)[C@@H](O)[C@]1(C)O (some centres not stated)								Activity [7]: Active; Activity [8]: Active; Activity [9]: Active; Activity [10]: Active; Activity [11]: Exihibits good activity; Activity [12]: Active; Activity [13]: Exihibits good activity
CC[C@H]1OC(=O)[C@H](C)[C@@H](O[C@H]2C[C@@](C)(OC)[C@@H](O)[C@H](C)O2)[C@H](C)[C@@H](O[C@@H]2O[C@H](C)C[C@H](N(C)C)[C@H]2O)[C@](C)(O)C[C@@H](C)CN(C)[C@H](C)[C@@H](O)[C@]1(C)O								Activity [7]: Active; Activity [8]: Active; Activity [14]: Active; Activity [9]: Active; Activity [10]: Active; Activity [12]: Active
C[C@@H](O)[C@H]1C(=O)N2C(C(=O)O)=C(SCCNC=N)C[C@H]12							Active	
C[C@@H](O)[C@H]1C(=O)N2C(C(=O)[O-])=C(c3ccc4c(c3)-c3ccc(C[n+]5ccn(C)c5)cc3C4=O)C[C@H]12								Activity [16]: Active; Activity [17]: Active
C[C@@H]1[C@H](NC(=O)/C(=N\OCC(=O)NNC(=O)c2nc3cc(O)c(O)cc3nc2C(=O)O)c2csc(N)n2)C(=O)N1S(=O)(=O)O							Active	
C[C@@H]1[C@H](NC(=O)/C(=N\OCc2cc3cc(O)c(O)cc3cc2C(=O)O)c2csc(N)n2)C(=O)N1S(=O)(=O)O							Active	

From ChEMBL document CHEMBL1129675, “New directions in antibacterial research” (1996)
